No end group written: not given here.
What was measured:
[1] = system: HP1β (homodimerization); assay: Equilibrium analytical ultracentrifugation, HP1β self-association; conditions: same buffer conditions
[2] = biological target: T1, wild-type HP1a-CSD (Drosophila melanogaster, UniProt P05205); assay: Fluorescence polarization binding assay, wild-type HP1a-CSD; conditions: for affinity for HP1a CSD compared with the PIWI peptide: in words, Kd not given
T1 sequence (P05205 131-206): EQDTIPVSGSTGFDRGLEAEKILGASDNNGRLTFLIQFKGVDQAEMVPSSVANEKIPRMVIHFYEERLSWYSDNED

[3] = biological target: HP1a-CSD E195Q mutant (Drosophila melanogaster, UniProt P05205, E195Q); format: binding; conditions: FP; E195Q vs WT HP1a-CSD
[4] = biological target: HP1a-CSD S199E and S202E double mutant (Drosophila melanogaster, UniProt P05205, S199E/S202E); format: binding; conditions: FP; for enhancement of affinity by the phosphorylation mimic, relative to WT CSD: S199E S202E double mutant vs WT HP1a-CSD
[5] = biological target: HP1a-CSDΔ204 (residues 131–203) (Drosophila melanogaster, UniProt P05205); format: binding; conditions: FP; Δ204 (last three residues removed) vs WT HP1a-CSD
[6] = biological target: HP1a-CSD W200A mutant (Drosophila melanogaster, UniProt P05205, W200A); assay: biochemical
[7] = biological target: HP1a-CSD I191E mutant (Drosophila melanogaster, UniProt P05205, I191E); assay: biochemical
Sequence of HP1a-CSD I191E mutant (P05205 131-206 I191E): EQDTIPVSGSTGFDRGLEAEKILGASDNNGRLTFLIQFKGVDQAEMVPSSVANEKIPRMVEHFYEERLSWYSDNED

Sequence of HP1a-CSD S199E and S202E double mutant (P05205 131-206 S199E/S202E): as the sequence (P05205 131-206 I191E) above, with E61I, S69E, S72E counted along it
Sequence of HP1a-CSD W200A mutant (P05205 131-206 W200A): as the sequence (P05205 131-206 I191E) above, with E61I, W70A counted along it
Sequence of HP1a-CSD E195Q mutant (P05205 131-206 E195Q): as the sequence (P05205 131-206 I191E) above, with E61I, E65Q counted along it

full length HP1β: recombinant full length mammalian HP1β (human and mouse sequences identical)
dimerization tighter than that of HP1a [1]: 3 times

H-PATTSPLVVLSNQLPLNSVAASY-OH [AF10]
affinity for HP1a CSD compared with the PIWI peptide ([2]; FP, WT HP1a-CSD): quite similar

TSRGSGDLSVKIFRGSSSGDY [PIWI peptide with HP2 pentamer]
Kd [2]: 21.3 ± 1.3 µM

QNISPRKLSVKINRRPYNKWLR [HP2]
drop in affinity caused by the E195Q mutation, relative to WT CSD [3]: 10 fold | Hill coefficient of peptide binding ([4]; S199E S202E double mutant): 1.7 ± 0.3 | enhancement of affinity by the phosphorylation mimic, relative to WT CSD [4]: 7 fold | difference in dissociation constant between HP2 and PIWI peptides ([2]; FP, WT HP1a-CSD, sub-micromolar to micromolar range): two-order of magnitude difference | weaker binding to the Δ204 construct, relative to WT CSD [5]: 16 fold | Kd [6]: > 500 µM | Kd [7]: > 400 µM

H-SEGRRLYPLLPRISPQTALSIVANDLAESD-OH [CG15356]
affinity for HP1a CSD compared with the PIWI peptide ([2]; FP, WT HP1a-CSD): quite similar

TSRGSGDPRVKVFRGSSSGDY [PIWI]
drop in affinity caused by the E195Q mutation, relative to WT CSD [3]: 5 fold | enhancement of affinity by the phosphorylation mimic, relative to WT CSD [4]: 12 fold | weaker binding to the Δ204 construct, relative to WT CSD [5]: 3 fold | Kd [6]: > 2000 µM | Kd [7]: > 2000 µM

Source: paper PMC3154745 (Chembiochem : a European journal of chemical biology, 2011)
